Several values for one entry are separate records, joined by “and”; a condition that tells them apart may be missing. Identical values can stand only once.
How the values were obtained:
mouse TTR gene = experiment: In vivo editing in mouse liver, sgRNA targeting TTR (G282 or G502), % indel by NGS; design: species or system CD-1 female mice
Procedure: (§1) CD-1 female mice ranging from 6-10 weeks of age were used in each study. Animals were weighed and grouped according to body weight for preparing dosing solutions based on group average weight. LNPs were dosed via the lateral tail vein in a volume of 0.2 mL per animal (approximately 10 mL per kilogram body weight). The animals were periodically observed for adverse effects for at least 24 hours post dose. For studies measuring in vivo editing in liver, CD-1 female mice were dosed at 0.1 mg/kg unless otherwise noted. Animals were euthanized at 6 or 7 days by ex sanguination via cardiac puncture under isoflurane anesthesia. Liver tissue was collected from each animal for DNA extraction and analysis. Blood was collected into serum separator tubes or into tubes containing buffered sodium citrate for plasma as described herein. Cohorts of mice were measured for editing by Next-Generation Sequencing (NGS).
(§2) In brief, to quantitatively determine the efficiency of editing at the target location in the genome, genomic DNA was isolated and deep sequencing was utilized to identify the presence of insertions and deletions introduced by gene editing.
(§3) PCR primers were designed around the target site (e.g., within B2M), and the genomic area of interest was amplified. Additional PCR was performed according to the manufacturer's protocols (Illumina) to add the necessary chemistry for sequencing. The amplicons were sequenced on an Illumina MiSeq instrument. The reads were aligned to the mouse or rat reference genome (e.g., GRCm38) after eliminating those having low quality scores. The resulting files containing the reads were mapped to the reference genome (BAM files), where reads that overlapped the target region of interest were selected and the number of wild type reads versus the number of reads which contain an insertion, substitution, or deletion was calculated.
(§4) The editing percentage (e.g., the “indel efficiency” or “percent indels”) was defined as the total number of sequence reads with insertions or deletions over the total number of sequence reads, including wild type.
(§5) We assessed in vivo editing efficiency for materials delivered with formulations including various amine lipid compounds. Editing was measured using either G282 (SEQ ID No: 1) which targets the mouse TTR gene or G650 (SEQ ID No. 2) which targets the mouse B2M gene. Lipids described above were assessed for efficacy through in vivo editing experiments. LNPs were formulated at a 1:1 or 1:1.3 w/w ratio of sgRNA to Cas9 mRNA, and at an N/P ratio of about 6. Molar concentrations of lipids in the lipid component of the LNPs are used at mol % amine lipid/DSPC/cholesterol/PEG-2k-DMG of 50/9/38/3. The final LNPs were characterized to determine the encapsulation efficiency, polydispersity index, and average particle size according to the analytical methods provided above. Analysis of average particle size, polydispersity (PDI), total RNA content and encapsulation efficiency of RNA are shown in Table 2.
To assess whether the editing was dose responsive, experiments were performed in vivo at various LNP dose levels. Cas9 mRNA of Example 120 was formulated as LNPs with an sgRNA targeting TTR (G282, SEQ ID NO: 1; or G502, SEQ ID NO: 4).
We assessed in vivo delivery by measuring editing efficiency for materials delivered with formulations that included various amine lipid compounds. Cas9 mRNA (SEQ ID NO: 6) was formulated as LNPs with an sgRNA targetting the TTR mouse gene (SEQ ID NO: 4). LNPs were formulated at a 1:2 w/w ratio of sgRNA to Cas9 mRNA, and at an N/P ratio of about 6. Molar concentrations of lipids in the lipid component of the LNPs are used at mol % amine lipid/DSPC/cholesterol/PEG-2k-DMG of 50/9/38/3. The final LNPs compositions were characterized and analyzed as described in Example 120. Analysis of average particle size, polydispersity (PDI), total RNA content and encapsulation efficiency of RNA are shown in Table 6.

mouse B2M gene [1] = experiment: In vivo editing in mouse liver, sgRNA targeting B2M (G650), % indel by NGS; design: species or system CD-1 female mice; details: for Editing Mean % Indel: mouse liver, guide G650, Experiment 104; for Liver editing (%): mouse, experiment 108
Procedure: as §1, §2, §3, §4, §5
Alternatively, Cas9 mRNA of Example 120 was formulated as LNPs with an sgRNA targeting B2M (G650, SEQ ID NO: 2) These LNPs were formulated at a w/w ratio of a sgRNA and Cas9 mRNA as indicated in Table 4. The LNPs were formulated using the cross flow procedure with lipid molar compositions of mol % amine lipid/DSPC/cholesterol/PEG-2k-DMG of 50/9/38/3 and an N/P ratio of 6.0. […]
CD-1 female mice were dosed i.v. at 0.1, 0.3, or 1 mg/kg and assessed for editing in liver, spleen, and bone marrow.

Transthyretin (TTR) = experiment: Serum TTR ELISA in mice after LNP dosing; type: in vivo, CD-1 female mice
Procedure, shortened: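 Female CD-1 mice, 6–10 weeks, given LNPs by tail-vein injection (~10 mL/kg), 0.1 mg/kg unless noted; serum taken at day 6 or 7 by cardiac puncture. Total mouse TTR by ELISA on sera diluted 10,000-fold (0.1 mg/kg) or 10,000- and 2,500-fold (0.3 mg/kg).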

mouse B2M gene [2] = experiment: In vivo editing in mouse bone marrow, G650 sgRNA, % indel by NGS; design: species or system CD-1 female mice; details: G650, i.v. dose 1 mg/kg, experiment 108
Procedure: [Worded in the source for another target; this target is reported under the same test.] as §2, §3, §4
The in vivo delivery to liver, spleen, and bone marrow was assessed by measuring editing efficiency for materials delivered with formulations including various amine lipid compounds. […]

[3] = LNP i.v. 0.03 mg/kg, guide G502, Experiment 105
[4] = LNP i.v. 0.1 mg/kg, guide G502, Experiment 105
[5] = mouse, LNP i.v. 0.03 mg/kg, guide G502, Experiment 105
[6] = mouse, LNP i.v. 0.03 mg/kg, guide G502, Experiment 105, relative to TSS control
[7] = mouse, LNP i.v. 0.1 mg/kg, guide G502, Experiment 105
[8] = mouse, LNP i.v. 0.1 mg/kg, guide G502, Experiment 105, relative to TSS control
[9] = LNP i.v. 0.1 mg/kg, guide G282, Experiments 101-103
[10] = LNP i.v. 0.3 mg/kg, guide G282, Experiments 101-103
[11] = mouse serum TTR relative to TSS control, guide G282 experiments
[12] = mouse serum, guide G282 experiments, ELISA
[13] = mouse, LNP i.v. 0.1 mg/kg, guide G282, Experiments 101-103
[14] = mouse, LNP i.v. 0.1 mg/kg, guide G282, Experiments 101-103, relative to TSS control
[15] = mouse, LNP i.v. 0.3 mg/kg, guide G282, Experiments 101-103
[16] = mouse, LNP i.v. 0.3 mg/kg, guide G282, Experiments 101-103, relative to TSS control

Structure (SMILES)	Editing Mean % Indel (mouse TTR gene; [3]) [%]	Editing Mean % Indel (mouse TTR gene; [4]) [%]	Editing Mean % Indel (mouse B2M gene [1]; LNP i.v. 0.1 mg/kg) [%]	Editing Mean % Indel (mouse B2M gene [1]; LNP i.v. 0.3 mg/kg) [%]	Liver editing (%) (mouse B2M gene [1]; G650, i.v. dose 0.1 mg/kg)	Liver editing (%) (mouse B2M gene [1]; G650, i.v. dose 0.3 mg/kg)	Liver editing (%) (mouse B2M gene [1]; G650, i.v. dose 1 mg/kg)	Serum TTR (Transthyretin (TTR); [5]) [µg/mL]	Serum TTR % TSS (Transthyretin (TTR); [6]) [%]	Serum TTR (Transthyretin (TTR); [7]) [µg/mL]	Serum TTR % TSS (Transthyretin (TTR); [8]) [%]	% Editing in BM (mouse B2M gene [2]) [%]	Editing Mean % Indel (mouse TTR gene; [9]) [%]	Editing Mean % Indel (mouse TTR gene; [10]) [%]	Serum TTR % TSS (Transthyretin (TTR); [11])	Serum TTR (Transthyretin (TTR); [12])	Serum TTR (Transthyretin (TTR); [13]) [µg/mL]	Serum TTR % TSS (Transthyretin (TTR); [14]) [%]	Serum TTR (Transthyretin (TTR); [15]) [µg/mL]	Serum TTR % TSS (Transthyretin (TTR); [16]) [%]	other results
CCCCC/C=C\C/C=C\CCCCCCCC(=O)OCC(COC(=O)CCC(OCCCCCCCC)OCCCCCCCC)COC(=O)OCCCN(CC)CC (stereo not drawn) [Compound 1, 3-((4,4-bis(octyloxy)butanoyl)oxy)-2-((((3-(diethylamino)propoxy)carbonyl)oxy)methyl)propyl (9Z,12Z)-octadeca-9,12-dienoate, reference compound]	9.24	47.62	17.8	50.3	23.74	58.48	73.6	931	85	294	27	2.66	–	–	–	–	–	–	–	–	Serum TTR % TSS (Transthyretin (TTR); mouse serum TTR relative to TSS control, guide G502, i.v. 0.1 mg/kg, 0.1 mg/kg): 53.7% and 37.8%; Serum TTR (Transthyretin (TTR); mouse serum, guide G502, i.v. 0.1 mg/kg, 0.1 mg/kg): 593.76 µg/mL and 442 µg/mL; Serum TTR % TSS (Transthyretin (TTR); mouse, LNP i.v. 0.1 mg/kg, guide G282, Experiments 101-103, relative to TSS control, 0.1 mg/kg): 79% and 54% and 76%; Serum TTR % TSS (Transthyretin (TTR); mouse, LNP i.v. 0.3 mg/kg, guide G282, Experiments 101-103, relative to TSS control, 0.3 mg/kg): 20% and 13%
CCCCC/C=C\C/C=C\CCCCCCCC(=O)OCC(COC(=O)CCC(OCCCCCCCC)OCCCCCCCC)COC(=O)NCC1CCCN1CC (stereo not drawn) [Compound 40, 3-((4,4-bis(octyloxy)butanoyl)oxy)-2-(((((1-ethylpyrrolidin-2-yl)methyl)carbamoyl)oxy)methyl)propyl (9Z,12Z)-octadeca-9,12-dienoate]	–	–	–	–	–	–	–	–	–	–	–	–	30.2	68.0	44%	393 µg/mL	443	48	80	9	–
CCCCC/C=C\C/C=C\CCCCCCCC(=O)OCC(COC(=O)CCC(OCCCCCCCC)OCCCCCCCC)COC(=O)OCC1CCCN(C)C1 (stereo not drawn) [Compound 53, 3-((4,4-bis(octyloxy)butanoyl)oxy)-2-(((((1-methylpiperidin-3-yl)methoxy)carbonyl)oxy)methyl)propyl (9Z,12Z)-octadeca-9,12-dienoate]	–	–	–	–	–	–	–	–	–	–	–	–	8.6	48.2	47%	413 µg/mL	619	67	231	25	–
CCCCCCCCCCOC(=O)CCCCCCCC(=O)OCC(COC(=O)CCC(OCCCCCCCC)OCCCCCCCC)COC(=O)OCCCN(CC)CC (stereo not drawn) [Compound 59, 1-(3-((4,4-bis(octyloxy)butanoyl)oxy)-2-((((3-(diethylamino)propoxy)carbonyl)oxy)methyl)propyl) 9-decyl nonanedioate]	11.8	35.64	21.2	51.6	–	–	–	909	83	467	42	–	32.4	63.9	40% and 57% and 66%	367 µg/mL and 431 µg/mL and 604 µg/mL	300	49	43	7	–
CCCCCCCCCC(C)OC(=O)CCCCCCCC(=O)OCC(COC(=O)CCC(OCCCCCCCC)OCCCCCCCC)COC(=O)OCCCN(CC)CC (stereo not drawn) [Compound 94, 1-(344,4-bis(octyloxy)butanoyl)oxy)-2-((((3-(diethylamino)propoxy)carbonyl)oxy)methyl)propyl) 9-(undecan-2-yl) nonanedioate]	19.76	43.52	–	–	–	–	–	605	55	352	32	–	–	–	38%	286 µg/mL	–	–	–	–	–
CCCCC/C=C\C/C=C\CCCCCCCC(=O)OCC(COC(=O)CC12CC3CC(CC(C3)C1)C2)COC(=O)OCCCN(CC)CC (stereo not drawn) [Compound 107, 3-(2-((3 r,5 r, 7r)-adamantan-1-yl)acetoxy)-2-((((3-(diethylamino)propoxy)carbonyl)oxy)methyl)propyl (9Z,12Z)-octadeca-9,12-dienoate]	–	–	–	–	0.52	1.04	5.92	–	–	–	–	0.32	–	–	–	–	–	–	–	–	–
